Source: patent publication US11766416B2, “Compositions of β-aminoisobutyric acid and methods for use thereof” (Nanjing Nutrabuilding Bio-tech Co., Ltd., priority 2020, dated 2023)

Key:
Type in all cases: in vivo, C57BL/6 male mice
[1] = Body weight of high-fat diet obese mice, measured weekly; conditions: 150 mg/kg/day oral
Experimental: (§1) 36 C57BL/6 male mice aged about 8 weeks, each having a body mass of approximately 21 g, were randomly assigned to six study groups (GA1, GA2, GB1, GB2, GB3, and GB4) of six mice each. Each animal's body weight is measured by a weight scale and recorded.
(§2) The total experimental time is 16 weeks, divided into two periods: an eight-week induction period and an eight-week treatment period.
(§3) Each study group consisted of 6 animals, and treatment details of the individual study groups are given below: • Group A1 (GA1): Normal mice, maintained on a normal diet (ND) for 8 weeks, receiving neither exercise nor L-BAIBA treatment. • Group A2 (GA2): Normal mice, maintained on a normal diet (ND) for 8 weeks, receiving only L-BAIBA treatment and no exercise. • Group B1 (GB1): Obese mice, maintained on a high-fat diet (HFD) for 8 weeks, receiving neither exercise nor L-BAIBA treatment. • Group B2 (GB2): Obese mice, maintained on HFD for 8 weeks, receiving only exercise and no L-BAIBA treatment. • Group B3 (GB3): Obese mice, maintained on HFD for 8 weeks, receiving only L-BAIBA treatment and no exercise. • Group B4 (GB4): Obese mice, maintained on HFD for 8 weeks, receiving both L-BAIBA treatment and exercise. […]
Throughout the study period, each mouse's body weight was measured weekly by a calibrated electronic digital weighing balance Sartorious BSA32025 (Sartorious AG, Göttingen, Germany). […]

[2] = Blood metabolism-related biomarkers (TG, TCHO, LDL, VLDL) at end of study; conditions: HFD-fed obese mice, 150 mg/kg/day oral, relative to same HFD, with or without exercise, without L-BAIBA
Experimental: as §1, §2
(§4) Each study group consisted of 6 animals, and treatment details of the individual study groups are given below: • Group A1 (GA1): Normal mice, maintained on a normal diet (ND) for 8 weeks, receiving neither exercise nor L-BAIBA treatment. • Group A2 (GA2): Normal mice, maintained on a normal diet (ND) for 8 weeks, receiving only L-BAIBA treatment and no exercise. • Group B1 (GB1): Obese mice, maintained on a high-fat diet (HFD) for 8 weeks, receiving neither exercise nor L-BAIBA treatment. • Group B2 (GB2): Obese mice, maintained on HFD for 8 weeks, receiving only exercise and no L-BAIBA treatment. • Group B3 (GB3): Obese mice, maintained on HFD for 8 weeks, receiving only L-BAIBA treatment and no exercise. • Group B4 (GB4): Obese mice, maintained on HFD for 8 weeks, receiving both L-BAIBA treatment and exercise.
Animals receiving L-BAIBA received, via oral administration, 150 mg/kg body weight of L-BAIBA, dissolved in 10 mL/kg body weight of ultrapure water, per day. Animals not receiving L-BAIBA were administered 10 mL/kg body weight of ultrapure water per day. All animals were maintained in a pathogen-free condition under a strict 12-hour alternate light/dark cycle with 12-15 cycles/hour of air exchange. All animals were provided with access to their respective feeds and water ad libitum. All animals were housed under controlled laboratory conditions of temperature and humidity at 23±2° C. and 50±10% RH.
At the end of the study described in Example 1, blood was collected from all test groups and various clinical parameters/biomarkers related to metabolism were determined: triglyceride (TG), total cholesterol (TCHO), low-density lipoprotein (LDL) and very low-density lipoprotein (VLDL).

[3] = Muscular (soleus) and hepatic glycogen content at end of study; conditions: HFD-fed obese mice, 150 mg/kg/day oral, relative to same HFD, with or without exercise, without L-BAIBA
Experimental: as §1, §2, §4
Animals receiving L-BAIBA received, via oral administration, 150 mg/kg body weight of L-BAIBA, dissolved in 10 mL/kg body weight of ultrapure water, per day. […]

[4] = Serum insulin and leptin by ELISA (insulin and leptin resistance); conditions: HFD-fed obese mice, 150 mg/kg/day oral, end of study, relative to same HFD, with or without exercise, without L-BAIBA
Experimental: as §1, §2, §3
At the end of the study described in Example 1, serum levels of insulin and leptin were quantified in all treatment groups by standard ELISA methods. […]

[5] = Weekly blood glucose level (tail vein, glucometer)
Experimental: as §1
(§5) The total experimental time is 16 weeks, divided into two periods: an eight-week induction period and an eight-week treatment period. […]
(§6) Throughout the study described in Example 1, glucose levels in each mouse's blood were measured weekly (week 9-16) on the starting day of every week, before the day's exercise and L-BAIBA dosing activities. […] Blood glucose levels were monitored pre-dose and at 15, 30, 60 and 120 minutes after administration of the glucose solution. […] The area under the curve (AUC) was calculated and expressed as percentage values.

[6] = Oral glucose tolerance test (OGTT) on day 113; conditions: HFD-fed obese mice, 150 mg/kg/day oral, day 113, glucose 2 g/kg oral; relative to same HFD, with or without exercise, without L-BAIBA; FIGS. 6A-7
Experimental: as §1, §5, §6

C[C@@H](CN)C(=O)O [L-BAIBA, L-β-aminoisobutyric acid]
body weight, GB3 relative to GB1 and GB2 ([1]; HFD obese mice, L-BAIBA only, no exercise (GB3), vs untreated (GB1) and exercise only (GB2), FIG. 1): reduced body weight
body weight ([1]; HFD-fed obese mice, 8-week treatment, with or without exercise, relative to same HFD without L-BAIBA): greater reduction in body weight
blood triglyceride (TG) ([2]; FIG. 2A): lower levels
blood total cholesterol (TCHO) ([2]; FIG. 2B): lower levels
blood low-density lipoprotein (LDL) ([2]; FIG. 2C): lower levels
blood very low-density lipoprotein (VLDL) ([2]; FIG. 2D): lower levels
hepatic glycogen content ([3]; liver main lobe, FIG. 3A): higher
muscular glycogen content ([3]; soleus muscle, FIG. 3B): higher
insulin resistance (serum insulin) ([4]; FIG. 4A): improved
leptin resistance (serum leptin) ([4]; FIG. 4B): improved leptin resistance
blood glucose level of obese mice over the experimental period ([5]; HFD obese mice, 150 mg/kg/day oral, weeks 9-16, compared with normal mice (GA1)): stable level, close to the level of normal mice (GA1)
blood glucose level ([5]; mice receiving 150 mg/kg/day oral, weekly weeks 9-16, GB3 and GB4 relative to GB1 and GB2, FIGS. 5A, 5B): greater reduction in blood glucose level
glucose tolerance (OGTT) [6]: better glucose tolerance
